From ChEMBL document CHEMBL1201862, “PubChem BioAssay data set” (2004)
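In this assay, cells in 96-well plates receive the compound at five concentrations for 48 hours. Endpoints are linearly interpolated between the surrounding concentrations. At the GI50, growth is halved.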 Calls of active or inactive are those of the source. Cut-off read from the data, not from the text of the source: active = GI50 up to about 1.1 µM and inactive = higher.

Key:
Assay in all cases: NCI anticancer screen, dose series, 48 h
EKVX = test system: EKVX
OVCAR-4 = test system: OVCAR-4
HCC 2998 = test system: HCC 2998
RXF 393 = test system: RXF 393
MOLT-4 = test system: MOLT-4
UACC-257 = test system: UACC-257
HL-60 = test system: HL-60
SF-268 = test system: SF-268
SK-MEL-2 = test system: SK-MEL-2
NCI-H23 = test system: NCI-H23
RPMI-8226 = test system: RPMI-8226
OVCAR-8 = test system: OVCAR-8
A498 = test system: A498
SW-620 = test system: SW-620
ACHN = test system: ACHN
HOP-92 = test system: HOP-92
NCI-H226 = test system: NCI-H226
MDA-MB-435 = test system: MDA-MB-435
OVCAR-5 = test system: OVCAR-5
Hs-578T = test system: Hs-578T

Measured: GI50

CC1=NN(c2cccc(Cl)c2)C2(C1)C(Cl)C(=O)N2c1nc2ccccc2s1 (stereo not given)
inactive: EKVX 45.5 µM | OVCAR-4 34.7 µM | HCC 2998 55.1 µM | RXF 393 27.9 µM | MOLT-4 14.5 µM | UACC-257 42.1 µM | HL-60 23.3 µM | SF-268 33.2 µM | SK-MEL-2 17.1 µM | NCI-H23 19.7 µM | RPMI-8226 17.3 µM | OVCAR-8 32.5 µM | A498 35.9 µM | SW-620 33.2 µM | ACHN 32.7 µM | HOP-92 25.3 µM | NCI-H226 14.2 µM | MDA-MB-435 25.6 µM | OVCAR-5 44.4 µM | Hs-578T 45.2 µM

COC(=O)C1(Cc2ccc3c(c2)CCC3)Cc2cc3c(cc2C1=O)CCC3 (stereo not given)
inactive: EKVX 21.3 µM | OVCAR-4 18.7 µM | HCC 2998 22.1 µM | RXF 393 29.4 µM | MOLT-4 16.5 µM | UACC-257 16.4 µM | HL-60 6.67 µM | SF-268 > 46.5 µM | SK-MEL-2 17.1 µM | NCI-H23 22 µM | RPMI-8226 8.02 µM | OVCAR-8 27.2 µM | A498 10.7 µM | SW-620 16.9 µM | ACHN 37.2 µM | HOP-92 7.74 µM | NCI-H226 39.2 µM | MDA-MB-435 13.3 µM | OVCAR-5 > 46.5 µM | Hs-578T 33 µM

CC1=NN2C(=N)/C(=C/c3ccc(F)cc3)C(=O)N=C2S1
inactive: EKVX > 100 µM | OVCAR-4 > 100 µM | HCC 2998 44.4 µM | RXF 393 > 100 µM | MOLT-4 > 100 µM | UACC-257 > 100 µM | HL-60 > 100 µM | SF-268 > 100 µM | SK-MEL-2 > 100 µM | NCI-H23 > 100 µM | RPMI-8226 > 100 µM | OVCAR-8 > 100 µM | A498 > 100 µM | SW-620 > 100 µM | ACHN > 100 µM | HOP-92 47.9 µM | NCI-H226 > 100 µM | MDA-MB-435 > 100 µM | OVCAR-5 > 100 µM | Hs-578T > 100 µM

Cc1cc(C)c2c(c1)CC1(Cc3c(ccc(C)c3C)C1=O)C2=O (stereo not given)
inactive: EKVX > 100 µM | OVCAR-4 > 100 µM | HCC 2998 > 100 µM | RXF 393 > 100 µM | MOLT-4 > 100 µM | UACC-257 > 100 µM | HL-60 > 100 µM | SF-268 > 100 µM | SK-MEL-2 > 100 µM | NCI-H23 > 100 µM | RPMI-8226 > 100 µM | OVCAR-8 > 100 µM | A498 > 100 µM | SW-620 > 100 µM | ACHN > 100 µM | HOP-92 > 100 µM | NCI-H226 > 100 µM | MDA-MB-435 > 100 µM | OVCAR-5 > 100 µM | Hs-578T > 100 µM

COC(=O)[C@]12CC[C@H]3CC[C@H]([C@H]31)[C@H](c1ccccc1)N2
inactive: EKVX 16.8 µM | OVCAR-4 15.2 µM | HCC 2998 13.5 µM | RXF 393 14.2 µM | MOLT-4 12.9 µM | UACC-257 15.1 µM | HL-60 19.1 µM | SF-268 19.6 µM | SK-MEL-2 15.2 µM | NCI-H23 16.8 µM | RPMI-8226 14.2 µM | OVCAR-8 17.4 µM | A498 17.6 µM | SW-620 22.2 µM | ACHN 17.6 µM | HOP-92 15.8 µM | NCI-H226 15.4 µM | MDA-MB-435 18.3 µM | OVCAR-5 17.3 µM | Hs-578T 23 µM

N#CCCCC[N+]12CN3CN(CN(C3)C1)C2
inactive: EKVX > 100 µM | OVCAR-4 > 100 µM | HCC 2998 > 100 µM | RXF 393 > 100 µM | MOLT-4 > 100 µM | UACC-257 > 100 µM | HL-60 > 100 µM | SF-268 > 100 µM | SK-MEL-2 > 100 µM | NCI-H23 > 100 µM | RPMI-8226 40.8 µM | OVCAR-8 > 100 µM | A498 > 100 µM | SW-620 64.6 µM | ACHN > 100 µM | HOP-92 > 100 µM | NCI-H226 > 100 µM | MDA-MB-435 > 100 µM | OVCAR-5 > 100 µM | Hs-578T > 100 µM

O=c1[nH]nc(-c2ccccc2)n1O
inactive: EKVX > 100 µM | OVCAR-4 > 100 µM | HCC 2998 > 100 µM | RXF 393 > 100 µM | MOLT-4 > 100 µM | UACC-257 > 100 µM | HL-60 > 100 µM | SF-268 91.4 µM | SK-MEL-2 > 100 µM | NCI-H23 > 100 µM | RPMI-8226 > 100 µM | OVCAR-8 > 100 µM | A498 > 100 µM | SW-620 > 100 µM | ACHN > 100 µM | HOP-92 > 100 µM | NCI-H226 > 100 µM | MDA-MB-435 > 100 µM | OVCAR-5 > 100 µM | Hs-578T > 100 µM

Nc1c([N+](=O)[O-])cc2c3c(cccc13)CC2
inactive: EKVX 26.7 µM | OVCAR-4 47.8 µM | HCC 2998 > 100 µM | RXF 393 23.1 µM | MOLT-4 23.6 µM | UACC-257 > 100 µM | HL-60 74.6 µM | SF-268 83.6 µM | SK-MEL-2 51.3 µM | NCI-H23 55 µM | RPMI-8226 55.7 µM | OVCAR-8 71.3 µM | A498 33.7 µM | SW-620 82.2 µM | ACHN > 100 µM | HOP-92 > 100 µM | NCI-H226 > 100 µM | MDA-MB-435 62.5 µM | OVCAR-5 > 100 µM | Hs-578T > 100 µM

CC(C)Cc1ccc(C(C)/C=C2\CCC(CN(C)C)C2=O)cc1 (stereo not given)
inactive: EKVX 19.9 µM | OVCAR-4 17 µM | HCC 2998 16.8 µM | RXF 393 20.1 µM | MOLT-4 2.64 µM | UACC-257 14.8 µM | HL-60 5.61 µM | SF-268 11.6 µM | SK-MEL-2 14.4 µM | NCI-H23 12.6 µM | RPMI-8226 1.56 µM | OVCAR-8 9.38 µM | A498 19.5 µM | SW-620 6.82 µM | ACHN 19.4 µM | HOP-92 19 µM | NCI-H226 20.2 µM | MDA-MB-435 7.16 µM | OVCAR-5 23 µM | Hs-578T 2.74 µM

NC(Cc1ccnnc1)C(=O)O (stereo not given)
inactive: EKVX > 100 µM | OVCAR-4 > 100 µM | HCC 2998 > 100 µM | RXF 393 > 100 µM | MOLT-4 > 100 µM | UACC-257 > 100 µM | HL-60 > 100 µM | SF-268 > 100 µM | SK-MEL-2 > 100 µM | NCI-H23 > 100 µM | RPMI-8226 > 100 µM | OVCAR-8 > 100 µM | A498 > 100 µM | SW-620 > 100 µM | ACHN > 100 µM | HOP-92 > 100 µM | NCI-H226 > 100 µM | MDA-MB-435 > 100 µM | OVCAR-5 > 100 µM | Hs-578T > 100 µM

CCOc1cc2c(cc1O)CC[C@@H]1[C@@H]2CC[C@]2(C)C(N)CC[C@@H]12 (stereo not given in full)
inactive: EKVX 4.27 µM | OVCAR-4 19.3 µM | HCC 2998 2.22 µM | RXF 393 1.21 µM | MOLT-4 5.93 µM | UACC-257 3.44 µM | HL-60 1.42 µM | SF-268 3.57 µM | SK-MEL-2 4.32 µM | NCI-H23 3.48 µM | RPMI-8226 3.01 µM | OVCAR-8 2.71 µM | A498 5.52 µM | SW-620 3.04 µM | ACHN 4.58 µM | HOP-92 10.6 µM | NCI-H226 2.77 µM | MDA-MB-435 1.63 µM | OVCAR-5 5.86 µM | Hs-578T 3.67 µM

C[C@@H](C[C@H]1OC(C)(C)O[C@@H]1C(C)(C)O)[C@H]1CC=C2[C@]3(C)[C@H](O)C[C@H]4C(C)(C)[C@H](O)CC[C@]4(C)[C@H]3CC[C@]21C
inactive: EKVX 9.98 µM | OVCAR-4 8.51 µM | HCC 2998 7.08 µM | RXF 393 6.44 µM | MOLT-4 4.52 µM | UACC-257 8.81 µM | HL-60 2.62 µM | SF-268 10.5 µM | SK-MEL-2 11.5 µM | NCI-H23 9.86 µM | RPMI-8226 4.03 µM | OVCAR-8 11.6 µM | A498 10.7 µM | SW-620 10.7 µM | ACHN 8.15 µM | HOP-92 6.21 µM | NCI-H226 7.62 µM | MDA-MB-435 8.28 µM | OVCAR-5 8.69 µM | Hs-578T 7.33 µM

Nc1nc(Cl)c(C=O)c(NCC2(CO)CC(CCc3ccccc3)C2)n1 (stereo not given)
inactive: EKVX 3.94 µM | OVCAR-4 2 µM | HCC 2998 1.88 µM | RXF 393 14.2 µM | MOLT-4 2.62 µM | UACC-257 3.08 µM | HL-60 1.67 µM | SF-268 15.4 µM | SK-MEL-2 3.57 µM | NCI-H23 2.29 µM | RPMI-8226 12.4 µM | OVCAR-8 2.07 µM | A498 11.7 µM | SW-620 4.1 µM | ACHN 12.7 µM | HOP-92 1.77 µM | NCI-H226 12.6 µM | MDA-MB-435 5.73 µM | OVCAR-5 15.8 µM | Hs-578T 22.9 µM

CCCCCCCCCCCC[C@@H](O)[C@H]1CC[C@H]([C@H](O)CC[C@H](O)[C@@H]2CC[C@@H](CCCCCCCC3=C[C@H](C)OC3=O)O2)O1
inactive: EKVX > 50 µM | OVCAR-4 > 50 µM | HCC 2998 > 50 µM | RXF 393 > 50 µM | MOLT-4 > 15.2 µM | UACC-257 > 14.9 µM | HL-60 1.74 µM | SF-268 > 50 µM | SK-MEL-2 > 50 µM | NCI-H23 > 18.1 µM | RPMI-8226 > 37.2 µM | OVCAR-8 > 50 µM | A498 > 50 µM | SW-620 > 50 µM | ACHN > 50 µM | HOP-92 > 50 µM | NCI-H226 > 50 µM | MDA-MB-435 > 50 µM | OVCAR-5 > 50 µM | Hs-578T 3.94 µM
